Values joined by “and” are separate entries in the source; they are usually repeats but may differ in a detail not shown here. Identical values can stand only once. Like-named read-outs stand apart in the source and are kept apart here.
Target: T1, human SLC6A19 (Homo sapiens, UniProt Q695T7)
T1 construct: expressed in transfected cells
T1 sequence (Q695T7 1-634): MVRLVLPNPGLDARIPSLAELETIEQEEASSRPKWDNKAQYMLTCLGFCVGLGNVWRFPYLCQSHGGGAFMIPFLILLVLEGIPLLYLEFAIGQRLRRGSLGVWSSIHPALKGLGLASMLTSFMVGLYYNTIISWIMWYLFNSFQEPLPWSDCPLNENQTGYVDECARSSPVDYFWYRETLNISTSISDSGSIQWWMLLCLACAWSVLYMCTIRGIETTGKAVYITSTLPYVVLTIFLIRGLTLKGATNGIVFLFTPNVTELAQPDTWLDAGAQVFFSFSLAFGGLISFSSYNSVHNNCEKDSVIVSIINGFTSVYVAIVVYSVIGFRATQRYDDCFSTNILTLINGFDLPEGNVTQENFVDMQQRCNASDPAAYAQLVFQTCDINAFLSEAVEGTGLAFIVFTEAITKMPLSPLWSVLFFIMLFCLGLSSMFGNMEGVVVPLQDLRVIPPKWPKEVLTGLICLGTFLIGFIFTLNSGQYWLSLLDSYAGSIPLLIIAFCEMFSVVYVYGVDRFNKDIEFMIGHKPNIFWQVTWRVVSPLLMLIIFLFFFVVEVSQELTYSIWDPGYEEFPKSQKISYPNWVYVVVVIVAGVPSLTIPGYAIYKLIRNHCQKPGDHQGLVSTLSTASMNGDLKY
T1 sequence (Q9HBJ8 15-222 partner): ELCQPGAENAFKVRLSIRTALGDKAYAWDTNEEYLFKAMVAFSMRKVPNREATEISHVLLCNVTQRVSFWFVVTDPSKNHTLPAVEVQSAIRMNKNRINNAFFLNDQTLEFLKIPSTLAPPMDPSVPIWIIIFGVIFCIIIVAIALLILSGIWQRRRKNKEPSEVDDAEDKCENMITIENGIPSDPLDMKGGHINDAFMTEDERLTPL
Test: Isoleucine transport assay, Flp-In T-REx 293 cells coexpressing human SLC6A19 and TMEM27
Format: cell-based
Conditions: for isoleucine transport, Human (Fig 1f curve point) / isoleucine transport, Human (Fig 1c curve point): technical replicates
Description: Flp-In T-REx 293 cells (Thermo Fisher Scientific) were engineered to coexpress C-terminally V5-tagged human or mouse SLC6A19 under the control of a tetracycline-inducible promoter and human or mouse myc-DDK-tagged TMEM27 under the control of a constitutively active promoter. Cells were maintained in DMEM/F12 medium supplemented with 10% FBS, 100 units/mL penicillin, 100 μg/mL streptomycin, 200 μg/mL hygromycin, 10 μg/mL blasticidin, and 300 μg/mL geneticin (all from Thermo Fisher Scientific) at 37°C and 5% CO2.
Flp-In T-REx 293 cells stably coexpressing human or mouse SLC6A19 and TMEM27 were plated in 384-well plates in the presence of 1 μg/mL tetracyclin (Sigma-Aldrich) to induce the expression of SLC6A19. After 24 hours, cells were washed with live cell imaging solution (LCIS, Thermo Fisher Scientific) before JN-170 or JNT-517 were added to cells in 10-point concentration response curves in 0.5% DMSO in Krebs buffer (140 mM NaCl, 4.7 mM KCl, 2.5 mM CaCl2, 1.2 mM MgCl2, 11 mM HEPES, 10 mM glucose, pH 7.4). Cells were incubated with compounds for 1 hour at room temperature before 1 mM ^13C6,^15N1-labeled L-isoleucine (Cambridge Isotope Laboratories) was added as a transport substrate. After 20 minutes incubation at room temperature, cells were washed and lysed in H2O with 15 μM internal standard D-Leucine-D10 (CDN Isotopes) for 1–2 hours. A standard curve of ^13C6,^15N1-L-isoleucine was added to each plate following cell lysis. Plates were centrifuged at 3,700g to remove cell debris, and supernatant was diluted in 2 steps to a final 1:10 dilution in acetonitrile/0.1% formic acid. Sample desalting was performed on a high throughput RapidFire-365 (Agilent) using a hydrophilic interaction liquid chromatography (HILIC) column. A quantitative time-of-flight (Q-ToF) mass spectrometer (Agilent) was used to detect analytes. Agilent MassHunter quantitative analysis for time of flight was used as the integration software for measuring area under the peak for both ^13C6,^15N1-L-isoleucine and D-Leucine-D10 internal standard.
IC50 values for transport inhibition in cells overexpressing SLC6A19 and TMEM27 were calculated using a 4-parameter logistic regression in Collaborative Drug Discovery (CDD). Reported IC50 values are geometric means of 4–6 independent experiments. For postmortem intestinal transport assays, single outliers of quadruplicate replicates were excluded from the calculation if a signal value’s distance to the mean exceeded 35% of the signal average. The IC50 values of individual experiments were calculated with a 3- or 4-parameter logistic regression using GraphPad Prism 9. The reported IC50 value represents the geometric mean of n = 5 experiments from 3 individual donors. Statistical comparison of urinary Phe excretion in Pah^enu2 mice treated with vehicle or JN-170 was conducted using 1-way analysis of variance (ANOVA) with Tukey’s post hoc comparison. Statistical analysis of baseline-adjusted plasma Phe in mice treated with vehicle or JN-170 was determined by 2-way ANOVA with Dunnett’s post hoc comparison. All statistical analyses were performed using GraphPad Prism 9. For clinical studies, group sizes were not determined based on statistical power calculations. Statistical significance of pharmacodynamic results was not assessed. Values are reported as mean (urinary Phe excretion, T1/2, Cl/F), geometric mean (Cmax/D, AUC0-inf/D), or median (Tmax).

`N#Cc1ccc(-c2noc([C@]3(C(F)(F)F)CCN(C(=O)NCCC4(N)CC4)C3)n2)cc1` [JN-170] was tested, and the “fold less potent against human SLC6A19 than mouse SLC6A19” value was over 10 fold, the “isoleucine transport, Human (Fig 1f curve point)” value (0.000722 uM) was 84.3 and 86.8 and the “isoleucine transport, Human (Fig 1f curve point)” value (0.00219 uM) was 72.6 and 89.2. For the same compound, the “isoleucine transport, Human (Fig 1f curve point)” value (0.00438 uM) was 81.4 and 98.3, the “isoleucine transport, Human (Fig 1f curve point)” value (0.015313 uM) was 84.4 and 88.8 and the “isoleucine transport, Human (Fig 1f curve point)” value (0.048125 uM) was 85.9 and 72.3. For the same compound, the “isoleucine transport, Human (Fig 1f curve point)” value (0.144375 uM) was 64.5 and 70.3, the “isoleucine transport, Human (Fig 1f curve point)” value (0.4375 uM) was 40 and 54.4 and the “isoleucine transport, Human (Fig 1f curve point)” value (1.3125 uM) was 41.1 and 23.8. The “isoleucine transport, Human (Fig 1f curve point)” value (3.9375 uM) was 21 and 4.32, the “isoleucine transport, Human (Fig 1f curve point)” value (11.8125 uM) was 2.26 and -9.71 and the IC50 (geometric mean n = 6, 95% CI 0.68–2.82 μM, read-out: IC50 against human SLC6A19, isoleucine transport assay) was 1250 nM.
`NC(=O)N1CCC[C@@H](N(C(=O)NCc2ccc(OC(F)(F)F)cc2F)C2CC2)C1` [JNT-517] was tested, and the “isoleucine transport, Human (Fig 1c curve point)” value (0.000722 uM) was 89.9 and 94.8, the “isoleucine transport, Human (Fig 1c curve point)” value (0.00219 uM) was 91.3 and 95.5 and the “isoleucine transport, Human (Fig 1c curve point)” value (0.00438 uM) was 79.4 and 85.4. The “isoleucine transport, Human (Fig 1c curve point)” value (0.0153125 uM) was 71.2 and 80.7, the “isoleucine transport, Human (Fig 1c curve point)” value (0.048125 uM) was 33.9 and 45.4 and the “isoleucine transport, Human (Fig 1c curve point)” value (0.144375 uM) was 25.9 and 24. The “isoleucine transport, Human (Fig 1c curve point)” value (0.4375 uM) was 12.2 and 4.05, the “isoleucine transport, Human (Fig 1c curve point)” value (1.3125 uM) was -3.01 and -3.67 and the “isoleucine transport, Human (Fig 1c curve point)” value (3.9375 uM) was -3.2 and -3.39. The “isoleucine transport, Human (Fig 1c curve point)” value (11.8125 uM) was -9.74 and -5.08 and the IC50 (geometric mean n = 4, 95% CI 38–57 nM, read-out: potency (IC50) against human SLC6A19, isoleucine transport assay) was 47 nM.

— publication PMC11601558, “SLC6A19 inhibition facilitates urinary neutral amino acid excretion and lowers plasma phenylalanine” (JCI Insight, 2024)
